Values of other authors as cited in patent publication US20190167749A1, “THE OLEO GEL COMPOSITION AND DELIVERY SYSTEM WITH ACTIVE COMPOUNDS FROM CANNABIS SATIVA AND MENTHA ARVENSIS FOR REDUCTION OF INFLAMMATION AND PAIN IN DEEP TISSUES” (UAB SATIMED, priority 2016, published 2019).
Where two headings read alike, the source gives them in different places.

System: collagen-induced arthritis

In the case of `C=C(C)[C@@H]1CCC(C)=C[C@H]1c1c(O)cc(CCCCC)cc1O` [CBD, cannabidiol], the progression of arthritis (acute and chronic relapsing CIA, i.p. or oral administration) is listed as “effectively blocked progression of arthritis”, the “dose with optimal effect (bell-shaped dose dependency)” value (i.p.) is listed as 5 mg/kg per day and the “dose with optimal effect (bell-shaped dose dependency)” value (orally) is listed as 25 mg/kg per day.
